According to patent US7858663B1, “Physical and chemical properties of thyroid hormone organic acid addition salts” (Pisgah Laboratories, Inc., priority 2007, dated 2010):

Legend:
Assay type in all cases: physicochemical
[1] = Hygroscopicity; conditions: compared with sodium or alkali metal salts of the thyroid hormones
[2] = Water solubility
[3] = Forced degradation as suspension in USP water at about 60° C., HPLC
Protocol: (§1) Chromatographic analyses were conducted on a Waters Breeze system equipped with a Waters 1525 Binary HPLC pump, 717plus Autosampler, 2487 Dual I Absorbance Detector and column heater employing a Zorbax Extend-C-18 Column (4.6×250 mm; 5 micron, 80 A). Separation occurred using a linear gradient elution according to the following table wherein eluant A consisted of 0.1% TFA in water and eluant B consisted of 0.1% TFA in acetonitrile.
(§2) Injection samples were prepared in water/1N NaOH/acetonitrile diluent (59:1:40) with analyte peaks detected at 230 nm. Analyte peaks associated with the pamoate salts were assayed against standard solutions prepared from liothyronine and levothryroxine.
(§3) The HPLC methodology was applied to freshly prepared samples of T3-pamoate and T4 pamoate and the resulting chromatograms compared with chromatograms of the materials after a four-year real-time storage under ambient laboratory conditions. Further, the pamoate salts were evaluated under forced degradation conditions to evaluate the effects of heat and moisture on the salts' chemical and thermal stability. Blank injections of the sample diluent were obtained at each time interval to determine if minor response differences observed were attributable to the diluent and the chromatographic system (eluant) or to real impurities within either liothyronine pamoate or levothyroxine pamoate.
To accelerate the potential degradation of levothyroxine pamoate and liothyronine pamoate, samples of each were individually placed in at least an 100 fold excess by weight USP water to form a suspension. The mixture was not degassed and heating was initiated to about 60° C. Multiple samples at each time point were obtained and analyzed from the mixture to assure a representative sample was obtained. FIG. 16 is an HPLC chromatogram of levothyroxine pamoate after subjection to this forced degradation condition for about 98 hours and is indicative of the unexpected stability associated with the organic acid addition salt. […]

[4] = Real-time storage stability under ambient laboratory conditions, HPLC comparison with freshly prepared material
Protocol: as §1, §2
as §3, with “pamoate. […]” for “pamoate.”

| Compound | Hygroscopicity [1] | Water solubility [2] | Decomposition under forced degradation (late eluting peak, retention time about 25-26 minutes) ([3]; aqueous environment at 60° C. for 148 hours) | Amount of degradation impurity at retention time 25-26 minutes ([3]; forced degradation, aqueous environment at 60° C. for 148 hours) | Amount of degradation impurity at retention time 25-26 minutes ([4]; extended storage, about four years at ambient laboratory conditions) | HPLC chromatogram after forced degradation compared with freshly prepared material ([3]; suspension in at least 100 fold excess USP water, not degassed, about 60° C., about 98 hours) | HPLC chromatogram after extended storage compared with freshly prepared material ([4]; about four years, ambient laboratory conditions 18-25° C., amber glass jars, detection 230 nm) |
| --- | --- | --- | --- | --- | --- | --- | --- |
| N[C@@H](Cc1cc(I)c(Oc2cc(I)c(O)c(I)c2)c(I)c1)C(=O)O [levothyroxine sodium, reference compound] | sufficient hygroscopic characteristics | water-soluble |  |  |  |  |  |
| N[C@@H](Cc1cc(I)c(Oc2ccc(O)c(I)c2)c(I)c1)C(=O)O.N[C@@H](Cc1cc(I)c(Oc2ccc(O)c(I)c2)c(I)c1)C(=O)O.O=C(O)c1cc2ccccc2c(Cc2c(O)c(C(=O)O)cc3ccccc23)c1O [liothyronine pamoate] |  |  | exhibited some decomposition | significant | only a minor amount of the impurity |  |  |
| levothyroxine pamoate |  | insoluble |  |  |  | essentially identical | essentially identical |
